Test results: ChEMBL document CHEMBL1201862, “PubChem BioAssay data set” (2004)
Calls of active or inactive are those of the source.

Assays:
Troponin, cardiac muscle = Troponin, cardiac muscle (Homo sapiens, UniProt P19429+P45379+P63316); experiment: Fluorescence-based biochemical high throughput dose response assay for activators of the calcium sensitivity of cardiac Regulated Thin Filaments (RTF). [Related pubchem assays (depositor defined):AID493008, AID493018, AID504382, AID504383]; format: protein-complex assay
[1] = target: T1, Runt-related transcription factor 1/Core-binding factor subunit beta (Homo sapiens, UniProt Q01196+Q13951); experiment: inhibitors of RUNX1 Runt–CBFb-SMMHC binding, biochemical, TR-FRET (AID 1438); format: protein assay
[2] = target: T1, Runt-related transcription factor 1/Core-binding factor subunit beta; experiment: inhibitors of RUNX1 Runt–CBFb-SMMHC binding, primary screen, biochemical, FRET, Cerulean-Runt, Venus-CBFb-SMMHC, uHTS (AID 1434); format: protein assay;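 note: partner is the CBFb-SMMHC leukemia fusion protein rather than wild-type CBFb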
[3] = target: T2, Neuropeptide Y receptor type 2 (Homo sapiens, UniProt P49146); experiment: Fluorescence-based cell-based high-throughput dose response assay for agonists of NPY-Y2. [Related pubchem assays: 1703 (Screening assay (CNGC inhibitors).), 1359 (Screening assay (NPY-Y2 potentiators or agonists).), 1304 (Screening assay (NPY-Y1 potentiators or agonists).), 1710 (Screening assay (NPY-Y2 agonists).), 1791 (Summary AID.)]; format: functional
T2 sequence (P49146 whole entry): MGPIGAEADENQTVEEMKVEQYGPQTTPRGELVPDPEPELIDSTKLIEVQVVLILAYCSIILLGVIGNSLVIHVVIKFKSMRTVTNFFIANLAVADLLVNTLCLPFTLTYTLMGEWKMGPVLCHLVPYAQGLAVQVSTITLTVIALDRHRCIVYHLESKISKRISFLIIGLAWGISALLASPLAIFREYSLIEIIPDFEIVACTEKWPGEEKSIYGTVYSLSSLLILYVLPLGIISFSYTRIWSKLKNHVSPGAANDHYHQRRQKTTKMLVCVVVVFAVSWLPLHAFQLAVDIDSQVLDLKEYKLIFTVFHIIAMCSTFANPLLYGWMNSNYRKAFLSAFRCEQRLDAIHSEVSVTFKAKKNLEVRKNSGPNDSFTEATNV

[4] = target: T3, Neuropeptide Y receptor type 1 (Homo sapiens, UniProt P25929); experiment: Fluorescence-based counterscreen for agonists of NPY-Y2: cell-based high-throughput dose response assay for agonists of NPY-Y1.; format: functional
T3 sequence (P25929 whole entry): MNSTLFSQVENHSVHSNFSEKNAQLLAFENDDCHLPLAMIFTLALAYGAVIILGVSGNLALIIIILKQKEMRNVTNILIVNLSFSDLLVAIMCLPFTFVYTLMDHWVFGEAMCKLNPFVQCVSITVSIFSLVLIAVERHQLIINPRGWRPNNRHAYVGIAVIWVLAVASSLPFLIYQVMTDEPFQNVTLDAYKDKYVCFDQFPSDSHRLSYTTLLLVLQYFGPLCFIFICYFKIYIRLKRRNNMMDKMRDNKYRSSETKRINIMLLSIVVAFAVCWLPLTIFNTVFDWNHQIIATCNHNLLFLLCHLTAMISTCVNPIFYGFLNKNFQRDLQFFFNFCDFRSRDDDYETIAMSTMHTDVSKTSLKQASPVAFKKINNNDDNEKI

HEK293 = experiment: Fluorescence-based counterscreen for potentiators or agonists of NPY-Y2: cell-based high-throughput dose response assay to identify inhibitors of cyclic nucleotide gated ion channel (CNGC) activity. In this assay, the parental HEK293 cell line transfected with a cyclic-nucleotide gated ion channel (CNGC)-based cAMP sensor is used to measure inhibition of isoproterenol-induced CNGC activity by test compound.; format: functional; conditions: Homo sapiens;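 note: stimulus is 1 µM isoproterenol at EC100 plus PDE inhibitor Ro 20-1724 at 25 µM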
[5] = target: Type-1 angiotensin II receptor (Homo sapiens, UniProt P30556); experiment: AT1 receptor agonists, dose response, selectivity assay for APJ receptor agonist project, cell-based, uHTS hits (AID 488865); format: functional;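 note: beta-arrestin recruitment to AT1 measured by enzyme fragment complementation luminescence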
Cytochrome P450 3A4 = Cytochrome P450 3A4 (Homo sapiens, UniProt P08684);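 note: CYP3A4 tested as one member of a cytochrome P450 panel screen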
cells = format: functional
[6] = target: G2/mitotic-specific cyclin-B1 (Homo sapiens, UniProt P14635); experiment: Counterscreen assay for inhibitors of Wee1 degradation: dose response cell-based assay to identify inhibitors of cyclin B degradation. [Related pubchem assays: 1410, 1321 ]; format: functional
[7] = HepG2 cell cytotoxicity, dose response, cytotoxicity control for non-replicating M. tuberculosis project (AID 489018); format: functional; conditions: Mycobacterium tuberculosis
HeLa = experiment: Cytotoxicity counterscreen assay for transcriptional activators of heat shock protein 70 (Hsp70). [Related pubchem assays: 1203, 1252 ]; format: functional; conditions: Homo sapiens;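 note: cells exposed to compound for 16 hours before readout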
[8] = Vero E6 cell cytotoxicity, dose response, cytotoxicity control for non-replicating M. tuberculosis project, secondary assay (AID 492998); format: functional, VeroE6; conditions: Vero C1008
[9] = target: T4, Heat shock factor protein 1 (Mus musculus, UniProt P38532); experiment: inhibition of MG132-induced HSE-luciferase signal, confirmation, cell-based, NIH3T3, luminescence, dose retest (AID 2382); format: functional;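 note: NIH3T3 fibroblasts with HSF1-driven luciferase reporter stressed by proteasome inhibitor MG132; luminescence from HSF1-driven luciferase expression after 8 hours of MG132 stress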
T4 sequence (P38532 whole entry): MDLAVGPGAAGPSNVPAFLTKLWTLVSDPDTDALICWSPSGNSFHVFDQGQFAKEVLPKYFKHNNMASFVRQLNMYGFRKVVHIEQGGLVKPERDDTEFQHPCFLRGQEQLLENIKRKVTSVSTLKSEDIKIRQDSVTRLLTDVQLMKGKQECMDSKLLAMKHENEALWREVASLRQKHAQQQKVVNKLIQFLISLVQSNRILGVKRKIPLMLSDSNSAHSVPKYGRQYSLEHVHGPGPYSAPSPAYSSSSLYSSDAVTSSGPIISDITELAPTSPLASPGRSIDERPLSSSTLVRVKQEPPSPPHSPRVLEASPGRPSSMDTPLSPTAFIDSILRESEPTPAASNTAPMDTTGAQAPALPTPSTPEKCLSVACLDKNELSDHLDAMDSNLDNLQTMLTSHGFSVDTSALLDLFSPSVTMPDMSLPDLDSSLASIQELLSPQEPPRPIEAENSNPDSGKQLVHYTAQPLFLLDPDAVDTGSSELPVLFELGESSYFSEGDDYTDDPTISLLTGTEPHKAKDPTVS

[10] = control 3'UTR Renilla luciferase suppression, dose response, counter-screen for Shn3 inhibitor project, cell-based, Clone20-Shn3RL, cherry-picked (AID 624133); format: functional
[11] = HepG2 cell cytotoxicity, dose response, cytotoxicity control, plate reader, cherry-pick, antagonist series (AID 743416); format: functional, cell-based
[12] = A549 cell cytotoxicity, dose response, cytotoxicity control, plate reader, cherry-pick, antagonist series (AID 743412); format: functional, cell-based
[13] = HEK293 cell cytotoxicity, dose response, cytotoxicity control, plate reader, cherry-picked samples (AID 743446); format: functional, cell-based
Wee1-like protein kinase = Wee1-like protein kinase (Homo sapiens, UniProt P30291); experiment: Dose Response Cell-based Assay for Inhibitors of Wee1 Degradation. [Related pubchem assays: 1410, 1321 ]; format: functional
[14] = THP-1 cell cytotoxicity, dose response, cytotoxicity control for non-replicating M. tuberculosis project (AID 489025); format: functional
[15] = LGR2 antagonists, dose response, cell-based, HEK293, CRE-luciferase reporter, cherry pick, set 2 (AID 743343); format: functional;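 note: transfected cells were stimulated with diluted bursicon conditioned medium after compound addition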
[16] = cytotoxicity in HEK-293T cells, dose response, cytotoxicity control for TCR NF-kB inhibitor project, luminescence, T-cell screen hits (AID 489026); format: functional, cell-based;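 note: cells exposed to compound about 14 hours before the viability readout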
[17] = Shn3 3'UTR reporter inhibitors, dose response, cell-based, Clone20 osteoblasts, firefly luciferase, cherry-picked (AID 624132); format: functional;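 note: firefly luciferase luminescence from reporter carrying the Shn3 3'UTR in osteoblasts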
[18] = HepG2 cell cytotoxicity, dose response, cytotoxicity control for Shn3 inhibitor project, CellTiter-Glo, cherry-picked (AID 624134); format: functional, cell-based
[19] = MC4R antagonists, dose response, counter-screen for LGR2 antagonist project, cell-based, plate reader, cherry pick (AID 743444); format: functional;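 note: transfected HEK 293 cells stimulated with alpha-MSH peptide; potency of inhibitors of the alpha-MSH evoked signal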
[20] = target: G-protein coupled receptor 55 (Homo sapiens, UniProt Q9Y2T6); experiment: GPR55 agonists via beta-arrestin recruitment, primary screen, imaging, U2OS cells, beta-arrestin-GFP redistribution (AID 1961); format: functional

COC(=O)C(=N/Nc1ccccc1C(=O)OC)/C(C)=N/O
EC50 (Troponin, cardiac muscle): > 71.5 µM (inactive)

Cc1cc(/C=N/NC(=O)Cn2c3ccccc3c(=O)c3ccccc32)c(C)n1-c1ccc(Cl)cc1
IC50 [1]: 11.6 µM (active) | IC50 [2]: 4.69 µM (active) | EC50 [3]: > 35.4 µM (not active) | EC50 [4]: > 35.4 µM (not active) | EC50 (HEK293): 3.28 µM (active)

CCOc1cc2[nH]c(=S)n(CCC(=O)N3CCc4ccccc4C3)c(=O)c2cc1OCC
EC50 [5]: > 100 µM (inactive) | AC50 (Cytochrome P450 3A4): 3.55 µM (inconclusive)

O=C1C=CC(O)(c2cc(=O)c3c(O)cc(O)cc3o2)C=C1 [PROTOAPIGENONE]
IC50 (cells): 3.02 µM (active) | EC50 [6]: > 1.84 µM (active) | CC50 [7]: 5.74 µM (active) | CC50 (HeLa): > 1.22 µM (not active) | CC50 [8]: 3.28 µM (active) | EC50 [9]: 4.28 µM (active) | AC50 [10]: 4.47 µM (active) | AC50 [11]: 7.09 µM (active) | AC50 [12]: 6.31 µM (active) | AC50 [13]: 5.13 µM (active) | EC50 (Wee1-like protein kinase): > 1.84 µM (active) | CC50 [14]: 2.6 µM (active) | AC50 [15]: 21.4 µM (active) | IC50 [16]: > 80 µM (inactive) | AC50 [17]: 5.12 µM (active) | AC50 [18]: 32.3 µM (active) | AC50 [19]: 27.1 µM (active)

COc1cc(S(=O)(=O)N2CCOCC2)ccc1NC(=O)c1cc2c(s1)CCC2
EC50 [20]: 2.83 µM (active)
